Experimental data from patent publication US8993574B2, “Pyrrole antifungal agents” (F2G Ltd, priority 2008, dated 2015).
Converted amounts (≈) assume the structure as drawn.

Key:
Assay type in all cases: cell-based
[1] = tested on: Aspergillus flavus; test: MIC, YAG medium; conditions: 24 h at 35° C, MIC banded into grades; for MIC: Aspergillus flavus, 24 h, read-out: MIC grade, A. flavus
Summary of the method: (§1)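 MICs (mg/L) derive from the lowest compound concentration suppressing spore outgrowth by >70% against a drug-free well, by OD 485 nm. Conditions: YAG medium, 1−2×10^4 cfu/mL, 24 h, 35° C, two-fold dilutions from 50 mg/L.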

[2] = tested on: Aspergillus fumigatus AF210; test: MIC, YAG medium; conditions: 24 h at 35° C, MIC banded into grades; for MIC: Aspergillus fumigatus, read-out: MIC grade, A. fumigatus 210
Summary of the method: as §1

[3] = tested on: Aspergillus fumigatus AF293; test: MIC, YAG medium; conditions: 24 h at 35° C, MIC banded into grades; for MIC: Aspergillus fumigatus, read-out: MIC grade, A. fumigatus
Summary of the method: as §1

[4] = tested on: Aspergillus niger; test: MIC, YAG medium; conditions: 24 h at 35° C, MIC banded into grades; for MIC: Aspergillus niger, read-out: MIC grade, A. niger
Summary of the method: as §1

[5] = tested on: Aspergillus terreus AT49; test: MIC, YAG medium; conditions: 24 h at 35° C, MIC banded into grades; for MIC: Aspergillus terreus, read-out: MIC grade, A. terreus 49
Summary of the method: as §1

[6] = tested on: Aspergillus terreus AT4; test: MIC, YAG medium; conditions: 24 h at 35° C, MIC banded into grades; for MIC: Aspergillus terreus, read-out: MIC grade, A. terreus
Summary of the method: as §1

[7] = tested on: Aspergillus flavus; test: MIC, RPMI medium; conditions: MIC banded into grades; for MIC: Aspergillus flavus, read-out: MIC grade, A. flavus
Summary of the method: (§2)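 RPMI (2% glucose, 0.135 M MOPS, pH 7.0) microdilution; drug 50-0.05 mg/L doubling series; inoculum 1−2×10^4 cfu/mL; 24-48 h, 35° C; OD485; MIC = lowest conc. with >80% inhibition vs drug-free control.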

[8] = tested on: Aspergillus fumigatus AF210; test: MIC, RPMI medium; conditions: for MIC: Aspergillus fumigatus, AF210, MIC banded into grades, read-out: MIC grade, A. fumigatus 210; for MIC grade, A. fumigatus 210: MIC banded into grades
Summary of the method: as §2

[9] = tested on: Aspergillus fumigatus AF293; test: MIC, RPMI medium; conditions: for MIC: Aspergillus fumigatus, AF293, MIC banded into grades, read-out: MIC grade, A. fumigatus; for MIC grade, A. fumigatus: MIC banded into grades
Summary of the method: as §2

[10] = tested on: Aspergillus niger; test: MIC, RPMI medium; conditions: MIC banded into grades; for MIC: Aspergillus niger, read-out: MIC grade, A. niger
Summary of the method: as §2

[11] = tested on: Aspergillus terreus AT49; test: MIC, RPMI medium; conditions: for MIC: Aspergillus terreus, AT49, MIC banded into grades, read-out: MIC grade, A. terreus 49; for MIC grade, A. terreus 49: MIC banded into grades
Summary of the method: as §2

[12] = tested on: Aspergillus terreus AT4; test: MIC, RPMI medium; conditions: for MIC: Aspergillus terreus, AT4, MIC banded into grades, read-out: MIC grade, A. terreus; for MIC grade, A. terreus: MIC banded into grades
Summary of the method: as §2

[13] = tested on: Candida albicans; test: MIC, RPMI medium; conditions: 24-48 h at 35° C., >80% growth inhibition, banded into grades; for MIC: Candida albicans
Summary of the method: as §2

[14] = tested on: Candida glabrata; test: MIC, RPMI medium; conditions: 24-48 h at 35° C., >80% growth inhibition, banded into grades; for MIC: Nakaseomyces glabratus
Summary of the method: as §2

[15] = tested on: Candida krusei; test: MIC, RPMI medium; conditions: 24-48 h at 35° C., >80% growth inhibition, banded into grades; for MIC: Pichia kudriavzevii
Summary of the method: as §2

[16] = tested on: Candida parapsilosis; test: MIC, RPMI medium; conditions: 24-48 h at 35° C., >80% growth inhibition, banded into grades; for MIC: Lodderomyces parapsilosis
Summary of the method: as §2

[17] = tested on: Candida tropicalis; test: MIC, RPMI medium; conditions: 24-48 h at 35° C., >80% growth inhibition, banded into grades; for MIC: Candida tropicalis
Summary of the method: as §2

Row | Compound | MIC [1] [µg/mL] | MIC [2] [µg/mL] | MIC [3] [µg/mL] | MIC [4] [µg/mL] | MIC [5] [µg/mL] | MIC [6] [µg/mL] | MIC [7] [µg/mL] | MIC [8] [µg/mL] | MIC [9] [µg/mL] | MIC [10] [µg/mL] | MIC [11] [µg/mL] | MIC [12] [µg/mL] | MIC [13] [µg/mL] | MIC [14] [µg/mL] | MIC [15] [µg/mL] | MIC [16] [µg/mL] | MIC [17] [µg/mL] | MIC grade, A. flavus [1] | MIC grade, A. fumigatus 210 [2] | MIC grade, A. fumigatus [3] | further results
1 | COCCn1ccc(-c2ccccc2)c1C(=O)C(=O)Nc1ccccc1 [Example 81, 2-[1-(2-Methoxy-ethyl)-3-phenyl-1H-pyrrol-2-yl]-2-oxo-N-phenyl-acetamide] | > 10 | > 10 | > 10 | > 10 | > 10 | > 10 | > 10 | > 10 | > 10 | > 10 | > 10 | > 10 | < 1 | < 1 | < 1 | < 1 | < 1 | – | – | – | –
2 | Cc1cc(C)nc(N2CCN(c3ccc(NC(=O)C(=O)c4c(-c5ccccc5)ccn4CCN(C)C)cc3)CC2)c1 [Example 84, 2-[1-(2-Dimethylamino-ethyl)-3-phenyl-1H-pyrrol-2-yl]-N-{4-[4-(4,6-dimethyl-pyridin-2-yl)-piperazin-1-yl]-phenyl}-2-oxo-acetamide] | > 10 | > 10 | > 10 | > 10 | > 10 | > 10 | > 10 | > 10 | > 10 | > 10 | > 10 | > 10 | < 1 | < 1 | < 1 | < 1 | < 1 | – | – | – | –
3 | Cc1cc(C)nc(N2CCN(c3ccc(NC(=O)C(=O)c4cc(-c5ccccc5)cn4CCN(C)C)cc3)CC2)c1 [Example 85, 2-[1-(2-Dimethylamino-ethyl)-4-phenyl-1H-pyrrol-2-yl]-N-{4-[4-(4,6-dimethyl-pyridin-2-yl)-piperazin-1-yl]-phenyl}-2-oxo-acetamide] | > 10 | > 10 | > 10 | 1 to 10 (≈ 1.82 to 18.2 µM) | > 10 | > 10 | > 10 | > 10 | > 10 | 1 to 10 (≈ 1.82 to 18.2 µM) | 1 to 10 (≈ 1.82 to 18.2 µM) | 1 to 10 (≈ 1.82 to 18.2 µM) | 1 to 10 (≈ 1.82 to 18.2 µM) | 1 to 10 (≈ 1.82 to 18.2 µM) | 1 to 10 (≈ 1.82 to 18.2 µM) | 1 to 10 (≈ 1.82 to 18.2 µM) | 1 to 10 (≈ 1.82 to 18.2 µM) | – | – | – | –
4 | Cc1cc(C)nc(N2CCN(c3ccc(NC(=O)C(=O)c4c(-c5ccccc5)cc(C)n4CCN(C)C)cc3)CC2)c1 [Example 86, 2-[1-(2-Dimethylamino-ethyl)-5-methyl-3-phenyl-1H-pyrrol-2-yl]-N-{4-[4-(4,6-dimethyl-pyridin-2-yl)-piperazin-1-yl]-phenyl}-2-oxo-acetamide] | 1 to 10 (≈ 1.77 to 17.7 µM) | > 10 | > 10 | > 10 | > 10 | > 10 | > 10 | > 10 | > 10 | > 10 | > 10 | > 10 | < 1 | < 1 | < 1 | < 1 | < 1 | – | – | – | –
5 | COC(=O)Cn1ccc(-c2cccs2)c1C(=O)C(=O)Nc1ccc(N2CCN(c3cc(C)cc(C)n3)CC2)cc1 [Example 87, (2-{4-[4-(4,6-Dimethyl-pyridin-2-yl)-piperazin-1-yl]-phenylaminooxalyl}-3-thiophen-2-yl-pyrrol-1-yl)-acetic acid methyl ester] | – | – | – | – | – | – | – | – | – | – | – | – | – | – | – | – | – | 1 (a grade of 1 represents an MIC of greater than 10 mg/L) | 3 (A grade of 3 represents an MIC of less than 1 mg/L) | 3 (A grade of 3 represents an MIC of less than 1 mg/L) | MIC grade, A. niger [4]: 3 (A grade of 3 represents an MIC of less than 1 mg/L); MIC grade, A. terreus 49 [5]: 3 (A grade of 3 represents an MIC of less than 1 mg/L); MIC grade, A. terreus [6]: 2 (A grade of 2 represents an MIC of from 1 to 10 mg/L); MIC grade, A. flavus [7]: 1 (a grade of 1 represents an MIC of greater than 10 mg/L); MIC grade, A. fumigatus 210 [8]: 3 (A grade of 3 represents an MIC of less than 1 mg/L); MIC grade, A. fumigatus [9]: 3 (A grade of 3 represents an MIC of less than 1 mg/L); MIC grade, A. niger [10]: 3 (A grade of 3 represents an MIC of less than 1 mg/L); MIC grade, A. terreus 49 [11]: 2 (A grade of 2 represents an MIC of from 1 to 10 mg/L); MIC grade, A. terreus [12]: 2 (A grade of 2 represents an MIC of from 1 to 10 mg/L); Candida MIC, C. albicans [13]: 2 (A grade of 2 represents an MIC of from 1 to 10 mg/L); Candida MIC, C. glabrata [14]: 3 (A grade of 3 represents an MIC of less than 1 mg/L); Candida MIC, C. krusei [15]: 2 (A grade of 2 represents an MIC of from 1 to 10 mg/L); Candida MIC, C. parapsilosis [16]: 3 (A grade of 3 represents an MIC of less than 1 mg/L); Candida MIC, C. tropicalis [17]: 3 (A grade of 3 represents an MIC of less than 1 mg/L)
6 | COC(=O)Cn1ccc(C(C)C)c1C(=O)C(=O)Nc1ccc(N2CCN(c3cc(C)cc(C)n3)CC2)cc1 [Example 88] | – | – | – | – | – | – | – | – | – | – | – | – | – | – | – | – | – | 1 (a grade of 1 represents an MIC of greater than 10 mg/L) | 3 (A grade of 3 represents an MIC of less than 1 mg/L) | 3 (A grade of 3 represents an MIC of less than 1 mg/L) | MIC grade, A. niger [4]: 2 (A grade of 2 represents an MIC of from 1 to 10 mg/L); MIC grade, A. terreus 49 [5]: 1 (a grade of 1 represents an MIC of greater than 10 mg/L); MIC grade, A. terreus [6]: 2 (A grade of 2 represents an MIC of from 1 to 10 mg/L); MIC grade, A. flavus [7]: 1 (a grade of 1 represents an MIC of greater than 10 mg/L); MIC grade, A. fumigatus 210 [8]: 3 (A grade of 3 represents an MIC of less than 1 mg/L); MIC grade, A. fumigatus [9]: 3 (A grade of 3 represents an MIC of less than 1 mg/L); MIC grade, A. niger [10]: 2 (A grade of 2 represents an MIC of from 1 to 10 mg/L); MIC grade, A. terreus 49 [11]: 1 (a grade of 1 represents an MIC of greater than 10 mg/L); MIC grade, A. terreus [12]: 1 (a grade of 1 represents an MIC of greater than 10 mg/L); Candida MIC, C. albicans [13]: 2 (A grade of 2 represents an MIC of from 1 to 10 mg/L); Candida MIC, C. glabrata [14]: 3 (A grade of 3 represents an MIC of less than 1 mg/L); Candida MIC, C. krusei [15]: 3 (A grade of 3 represents an MIC of less than 1 mg/L); Candida MIC, C. parapsilosis [16]: 3 (A grade of 3 represents an MIC of less than 1 mg/L); Candida MIC, C. tropicalis [17]: 3 (A grade of 3 represents an MIC of less than 1 mg/L)
7 | COC(=O)Cn1ccc(CC(C)C)c1C(=O)C(=O)Nc1ccc(N2CCN(c3cc(C)cc(C)n3)CC2)cc1 [Example 89, (2-{4-[4-(4,6-Dimethyl-pyridin-2-yl)-piperazin-1-yl]-phenylaminooxalyl}-3-isobutyl-pyrrol-1-yl)-acetic acid methyl ester] | – | – | – | – | – | – | – | – | – | – | – | – | – | – | – | – | – | 1 (a grade of 1 represents an MIC of greater than 10 mg/L) | 3 (A grade of 3 represents an MIC of less than 1 mg/L) | 3 (A grade of 3 represents an MIC of less than 1 mg/L) | MIC grade, A. niger [4]: 2 (A grade of 2 represents an MIC of from 1 to 10 mg/L); MIC grade, A. terreus 49 [5]: 2 (A grade of 2 represents an MIC of from 1 to 10 mg/L); MIC grade, A. terreus [6]: 2 (A grade of 2 represents an MIC of from 1 to 10 mg/L); MIC grade, A. flavus [7]: 1 (a grade of 1 represents an MIC of greater than 10 mg/L); MIC grade, A. fumigatus 210 [8]: 2 (A grade of 2 represents an MIC of from 1 to 10 mg/L); MIC grade, A. fumigatus [9]: 2 (A grade of 2 represents an MIC of from 1 to 10 mg/L); MIC grade, A. niger [10]: 2 (A grade of 2 represents an MIC of from 1 to 10 mg/L); MIC grade, A. terreus 49 [11]: 1 (a grade of 1 represents an MIC of greater than 10 mg/L); MIC grade, A. terreus [12]: 1 (a grade of 1 represents an MIC of greater than 10 mg/L); Candida MIC, C. albicans [13]: 2 (A grade of 2 represents an MIC of from 1 to 10 mg/L); Candida MIC, C. glabrata [14]: 3 (A grade of 3 represents an MIC of less than 1 mg/L); Candida MIC, C. krusei [15]: 3 (A grade of 3 represents an MIC of less than 1 mg/L); Candida MIC, C. parapsilosis [16]: 3 (A grade of 3 represents an MIC of less than 1 mg/L); Candida MIC, C. tropicalis [17]: 3 (A grade of 3 represents an MIC of less than 1 mg/L)
